Source: the kinase profiling compilation of Christmann-Franck et al. (2016)
Values joined by “and” are separate entries in the source; they are usually repeats but may differ in a detail not shown here. Identical values can stand only once.

Legend:
Assay in all cases: radiometric filter-binding kinase assay, Kinase HotSpot
Details in all cases: compound 0.5 µM; ATP 10 µM
[1] = molecular target: CAMK2A (human) (UniProt Q9UQM7)
[2] = molecular target: CAMK1 (human) (UniProt Q14012)
[3] = molecular target: PRKG1 (human) (UniProt Q13976)
[4] = molecular target: MAP3K11 (human) (UniProt Q16584)
[5] = molecular target: CDK6 CCND3 (human) (UniProt P30281+Q00534)
[6] = molecular target: GRK5 (human) (UniProt P34947)
[7] = molecular target: MAP4K4 (human) (UniProt O95819)
[8] = molecular target: MAPK3 (human) (UniProt P27361)
[9] = molecular target: CAMK4 (human) (UniProt Q16566)
[10] = molecular target: CAMK2G (human) (UniProt Q13555)
[11] = molecular target: DCLK2 (human) (UniProt Q8N568)
[12] = molecular target: NEK6 (human) (UniProt Q9HC98)
Sequence of NEK6 (human) (Q9HC98 whole entry, looked up): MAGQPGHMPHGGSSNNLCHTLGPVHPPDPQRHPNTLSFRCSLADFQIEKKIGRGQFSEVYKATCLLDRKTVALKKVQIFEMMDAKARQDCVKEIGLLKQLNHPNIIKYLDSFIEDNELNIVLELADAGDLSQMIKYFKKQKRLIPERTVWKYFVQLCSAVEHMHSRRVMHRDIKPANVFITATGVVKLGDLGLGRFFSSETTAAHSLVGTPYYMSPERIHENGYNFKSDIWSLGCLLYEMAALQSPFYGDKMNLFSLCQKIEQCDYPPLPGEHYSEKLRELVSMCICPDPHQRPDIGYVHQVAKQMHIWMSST

[13] = molecular target: CDK5 CDK5R1 p35 (human) (UniProt Q00535+Q15078)
[14] = molecular target: TGFBR2 (human) (UniProt P37173)
[15] = molecular target: FGR (human) (UniProt P09769)
[16] = molecular target: STK33 (human) (UniProt Q9BYT3)
[17] = molecular target: MAP3K7 TAB1 (human) (UniProt O43318+Q15750)
[18] = molecular target: MAPK8 (human) (UniProt P45983)
Sequence of MAPK8 (human) (P45983 whole entry, looked up): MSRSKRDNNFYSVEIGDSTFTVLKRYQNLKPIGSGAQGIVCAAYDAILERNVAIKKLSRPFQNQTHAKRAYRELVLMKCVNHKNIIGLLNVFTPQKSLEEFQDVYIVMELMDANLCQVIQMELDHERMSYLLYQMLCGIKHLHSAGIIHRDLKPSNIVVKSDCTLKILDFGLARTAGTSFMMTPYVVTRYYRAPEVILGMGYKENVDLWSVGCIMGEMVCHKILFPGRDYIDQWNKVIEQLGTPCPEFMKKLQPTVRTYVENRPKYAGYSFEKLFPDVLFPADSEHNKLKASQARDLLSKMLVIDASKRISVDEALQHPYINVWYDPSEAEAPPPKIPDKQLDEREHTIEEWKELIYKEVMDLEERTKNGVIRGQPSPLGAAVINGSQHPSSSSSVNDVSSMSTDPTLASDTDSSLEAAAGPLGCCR

[19] = molecular target: NEK9 (human) (UniProt Q8TD19)
[20] = molecular target: MINK1 (human) (UniProt Q8N4C8)
Sequence of MINK1 (human) (Q8N4C8 whole entry, looked up): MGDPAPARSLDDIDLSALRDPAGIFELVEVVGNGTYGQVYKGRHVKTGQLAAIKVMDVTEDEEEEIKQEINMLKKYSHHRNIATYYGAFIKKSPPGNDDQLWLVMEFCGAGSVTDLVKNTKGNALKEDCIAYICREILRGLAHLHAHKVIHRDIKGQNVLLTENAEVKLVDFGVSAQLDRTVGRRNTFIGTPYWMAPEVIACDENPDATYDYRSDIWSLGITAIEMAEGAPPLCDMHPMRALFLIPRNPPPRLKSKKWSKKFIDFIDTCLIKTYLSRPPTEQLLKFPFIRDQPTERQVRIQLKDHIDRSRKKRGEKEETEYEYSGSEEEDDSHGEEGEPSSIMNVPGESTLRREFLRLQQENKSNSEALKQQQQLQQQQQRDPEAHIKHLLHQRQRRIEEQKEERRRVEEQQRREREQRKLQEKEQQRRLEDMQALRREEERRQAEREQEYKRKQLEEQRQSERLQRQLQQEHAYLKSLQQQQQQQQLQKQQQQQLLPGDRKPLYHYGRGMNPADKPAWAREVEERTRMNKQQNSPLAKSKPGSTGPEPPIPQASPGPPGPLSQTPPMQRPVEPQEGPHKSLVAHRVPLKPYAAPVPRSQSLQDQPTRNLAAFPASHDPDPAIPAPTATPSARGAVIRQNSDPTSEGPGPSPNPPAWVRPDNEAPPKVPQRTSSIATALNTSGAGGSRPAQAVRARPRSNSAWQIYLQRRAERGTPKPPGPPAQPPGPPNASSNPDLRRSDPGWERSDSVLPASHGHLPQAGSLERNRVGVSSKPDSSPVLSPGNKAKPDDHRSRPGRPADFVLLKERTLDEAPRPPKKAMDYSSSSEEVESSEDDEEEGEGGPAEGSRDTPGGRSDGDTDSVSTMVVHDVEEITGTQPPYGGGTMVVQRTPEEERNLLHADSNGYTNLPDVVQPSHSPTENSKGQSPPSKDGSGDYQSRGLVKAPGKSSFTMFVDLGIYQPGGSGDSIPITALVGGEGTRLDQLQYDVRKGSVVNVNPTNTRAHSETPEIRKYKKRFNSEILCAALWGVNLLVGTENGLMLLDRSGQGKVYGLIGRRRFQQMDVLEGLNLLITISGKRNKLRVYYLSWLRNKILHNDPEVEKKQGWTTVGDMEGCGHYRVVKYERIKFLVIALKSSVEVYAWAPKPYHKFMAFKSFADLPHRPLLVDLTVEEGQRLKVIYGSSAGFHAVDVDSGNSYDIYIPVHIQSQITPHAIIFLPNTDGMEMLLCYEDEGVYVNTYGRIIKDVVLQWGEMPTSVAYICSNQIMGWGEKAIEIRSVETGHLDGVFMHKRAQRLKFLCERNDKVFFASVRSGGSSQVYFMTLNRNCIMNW

[21] = molecular target: MAP3K5 (human) (UniProt Q99683)
[22] = molecular target: EPHB3 (human) (UniProt P54753)
[23] = molecular target: LCK (human) (UniProt P06239)
Sequence of LCK (human) (P06239 whole entry, looked up): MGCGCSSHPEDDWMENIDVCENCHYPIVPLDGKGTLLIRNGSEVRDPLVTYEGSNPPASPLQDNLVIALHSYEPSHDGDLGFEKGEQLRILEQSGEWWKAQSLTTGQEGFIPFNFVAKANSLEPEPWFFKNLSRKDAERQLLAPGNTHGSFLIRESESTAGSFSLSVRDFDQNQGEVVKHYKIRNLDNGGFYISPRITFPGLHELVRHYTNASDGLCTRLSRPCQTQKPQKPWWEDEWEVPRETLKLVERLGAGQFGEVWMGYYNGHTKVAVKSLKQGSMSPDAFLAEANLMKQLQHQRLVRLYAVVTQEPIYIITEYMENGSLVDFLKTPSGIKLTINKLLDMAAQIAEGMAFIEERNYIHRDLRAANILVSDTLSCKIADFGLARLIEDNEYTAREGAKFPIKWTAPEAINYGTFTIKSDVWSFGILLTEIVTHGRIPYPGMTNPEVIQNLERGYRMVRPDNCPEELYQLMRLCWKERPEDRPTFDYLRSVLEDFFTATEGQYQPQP

[24] = molecular target: STK10 (human) (UniProt O94804)
[25] = molecular target: STK16 (human) (UniProt O75716)
Sequence of STK16 (human) (O75716 whole entry, looked up): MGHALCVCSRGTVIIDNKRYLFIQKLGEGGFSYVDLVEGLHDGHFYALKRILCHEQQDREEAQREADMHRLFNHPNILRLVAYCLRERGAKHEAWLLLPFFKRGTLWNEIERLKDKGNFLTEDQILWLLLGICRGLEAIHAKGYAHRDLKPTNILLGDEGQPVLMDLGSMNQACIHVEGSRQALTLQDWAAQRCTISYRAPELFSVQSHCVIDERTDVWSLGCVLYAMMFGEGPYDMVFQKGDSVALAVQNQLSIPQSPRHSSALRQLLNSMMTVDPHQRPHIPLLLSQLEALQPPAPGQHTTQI

[26] = molecular target: CAMK2D (human) (UniProt Q13557)
[27] = molecular target: JAK3 JH1 JH2 (human) (UniProt P52333)
[28] = molecular target: STK3 (human) (UniProt Q13188)
[29] = molecular target: CLK1 (human) (UniProt P49759)
[30] = molecular target: MAPKAPK3 (human) (UniProt Q16644)
[31] = molecular target: MYLK (human) (UniProt Q15746)
[32] = molecular target: STK25 (human) (UniProt O00506)
Sequence of STK25 (human) (O00506 whole entry, looked up): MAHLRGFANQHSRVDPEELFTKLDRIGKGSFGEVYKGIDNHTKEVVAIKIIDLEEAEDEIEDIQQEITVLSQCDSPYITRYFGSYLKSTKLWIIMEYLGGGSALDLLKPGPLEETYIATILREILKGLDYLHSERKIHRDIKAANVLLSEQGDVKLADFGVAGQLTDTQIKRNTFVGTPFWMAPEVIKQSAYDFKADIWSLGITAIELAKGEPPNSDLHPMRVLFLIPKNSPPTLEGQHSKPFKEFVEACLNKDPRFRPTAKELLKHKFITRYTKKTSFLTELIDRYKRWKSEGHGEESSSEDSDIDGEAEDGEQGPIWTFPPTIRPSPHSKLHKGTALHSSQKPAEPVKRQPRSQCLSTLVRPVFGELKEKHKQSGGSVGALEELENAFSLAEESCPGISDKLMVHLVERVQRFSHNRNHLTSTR

[33] = molecular target: PASK (human) (UniProt Q96RG2)
[34] = molecular target: STK17A (human) (UniProt Q9UEE5)
[35] = molecular target: MAP2K1 (human) (UniProt Q02750)
[36] = molecular target: CDK4 CCND3 (human) (UniProt P30281+P11802)
[37] = molecular target: SRC (human) (UniProt P12931)
[38] = molecular target: ROCK2 (human) (UniProt O75116)
Sequence of ROCK2 (human) (O75116 whole entry, looked up): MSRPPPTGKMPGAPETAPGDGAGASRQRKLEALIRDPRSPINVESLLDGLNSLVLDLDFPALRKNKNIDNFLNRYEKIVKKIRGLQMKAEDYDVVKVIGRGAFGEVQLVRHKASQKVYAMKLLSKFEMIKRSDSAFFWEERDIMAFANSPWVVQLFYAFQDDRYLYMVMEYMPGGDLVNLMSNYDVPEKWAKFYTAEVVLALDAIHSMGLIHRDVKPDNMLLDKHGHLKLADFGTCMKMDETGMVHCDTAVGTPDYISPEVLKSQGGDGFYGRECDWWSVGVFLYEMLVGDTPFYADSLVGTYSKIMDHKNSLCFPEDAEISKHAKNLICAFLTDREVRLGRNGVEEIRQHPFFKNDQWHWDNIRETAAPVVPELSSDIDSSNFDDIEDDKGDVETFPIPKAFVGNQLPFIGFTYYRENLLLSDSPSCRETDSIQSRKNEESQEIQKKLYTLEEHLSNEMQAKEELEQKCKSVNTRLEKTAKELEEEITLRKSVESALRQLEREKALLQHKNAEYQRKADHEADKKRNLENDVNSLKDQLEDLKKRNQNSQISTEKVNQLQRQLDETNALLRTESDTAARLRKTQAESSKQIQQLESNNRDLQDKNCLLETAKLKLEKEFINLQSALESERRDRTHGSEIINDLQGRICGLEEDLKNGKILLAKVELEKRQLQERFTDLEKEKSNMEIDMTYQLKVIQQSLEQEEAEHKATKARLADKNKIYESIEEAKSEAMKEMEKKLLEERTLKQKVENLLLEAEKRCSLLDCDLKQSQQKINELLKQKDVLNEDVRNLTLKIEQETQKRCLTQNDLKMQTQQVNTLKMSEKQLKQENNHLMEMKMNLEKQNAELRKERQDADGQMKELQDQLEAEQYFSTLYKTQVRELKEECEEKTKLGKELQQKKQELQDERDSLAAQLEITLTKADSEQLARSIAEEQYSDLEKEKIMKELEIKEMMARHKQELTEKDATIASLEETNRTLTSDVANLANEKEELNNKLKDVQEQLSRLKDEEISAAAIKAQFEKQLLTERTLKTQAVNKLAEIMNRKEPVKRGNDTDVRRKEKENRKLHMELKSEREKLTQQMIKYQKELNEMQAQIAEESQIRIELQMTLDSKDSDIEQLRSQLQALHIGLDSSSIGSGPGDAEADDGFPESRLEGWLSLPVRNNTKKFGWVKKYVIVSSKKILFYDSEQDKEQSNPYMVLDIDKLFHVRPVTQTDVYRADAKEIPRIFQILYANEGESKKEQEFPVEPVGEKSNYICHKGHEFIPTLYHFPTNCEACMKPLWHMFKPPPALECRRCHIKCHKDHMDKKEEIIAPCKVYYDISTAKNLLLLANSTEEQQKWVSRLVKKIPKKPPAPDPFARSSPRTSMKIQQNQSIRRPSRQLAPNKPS

[39] = molecular target: PNCK (human) (UniProt Q6P2M8)
Sequence of PNCK (human) (Q6P2M8 whole entry, looked up): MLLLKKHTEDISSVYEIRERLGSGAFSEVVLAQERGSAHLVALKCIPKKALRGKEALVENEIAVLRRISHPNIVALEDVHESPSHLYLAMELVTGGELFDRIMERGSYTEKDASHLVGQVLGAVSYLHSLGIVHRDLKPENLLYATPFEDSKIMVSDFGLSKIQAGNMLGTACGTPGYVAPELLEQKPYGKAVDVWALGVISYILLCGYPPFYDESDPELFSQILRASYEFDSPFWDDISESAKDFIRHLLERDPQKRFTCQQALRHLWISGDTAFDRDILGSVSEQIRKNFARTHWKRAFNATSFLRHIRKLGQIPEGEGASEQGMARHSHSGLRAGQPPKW

[40] = molecular target: CAMK2B (human) (UniProt Q13554)
[41] = molecular target: IRAK1 (human) (UniProt P51617)

COc1ccc2c(c[n+](C)c3c4cc5c(cc4ccc23)OCO5)c1OC
residual activity [1]: 99.5%
residual activity [2]: 81.4%
residual activity [3]: 97.6% and 98.8%
residual activity [4]: 95%
residual activity [5]: 94.6%
residual activity [6]: 110%
residual activity [7]: 84.9%
residual activity [8]: 108%
residual activity [9]: 99.9%
residual activity [10]: 95.9%
residual activity [11]: 96%
residual activity [12]: 104%
residual activity [13]: 95.7%
residual activity [14]: 71.6%
residual activity [15]: 91.3%
residual activity [16]: 102%
residual activity [17]: 100%
residual activity [18]: 89.8%
residual activity [19]: 97%
residual activity [20]: 97.5%
residual activity [21]: 114%
residual activity [22]: 95.4%
residual activity [23]: 89%
residual activity [24]: 92.7%
residual activity [25]: 102%
residual activity [26]: 90.4%
residual activity [27]: 101%
residual activity [28]: 102%
residual activity [29]: 101%
residual activity [30]: 83%
residual activity [31]: 100%
residual activity [32]: 98.8%
residual activity [33]: 91.1%
residual activity [34]: 104%
residual activity [35]: 97.8%
residual activity [36]: 98.8%
residual activity [37]: 91.5%
residual activity [38]: 92.5%
residual activity [39]: 103%
residual activity [40]: 98.9%
residual activity [41]: 103%

CC[n+]1c(/C=C/N(C)c2ccccc2)n(-c2ccccc2)c2ccc(-c3nc4ccccc4s3)cc21
residual activity [1]: 103%
residual activity [2]: 94.4%
residual activity [3]: 104% and 105%
residual activity [4]: 102%
residual activity [5]: 92.2%
residual activity [6]: 109%
residual activity [7]: 110%
residual activity [8]: 112%
residual activity [9]: 93.2%
residual activity [10]: 103%
residual activity [11]: 102%
residual activity [12]: 96.1%
residual activity [13]: 97.6%
residual activity [14]: 95.1%
residual activity [15]: 94.1%
residual activity [16]: 89.4%
residual activity [17]: 98.8%
residual activity [18]: 96.3%
residual activity [19]: 108%
residual activity [20]: 99%
residual activity [21]: 100%
residual activity [22]: 102%
residual activity [23]: 89.9%
residual activity [24]: 101%
residual activity [25]: 98.4%
residual activity [26]: 94%
residual activity [27]: 106%
residual activity [28]: 98.9%
residual activity [29]: 108%
residual activity [30]: 100%
residual activity [31]: 98.4%
residual activity [32]: 96.5%
residual activity [33]: 102%
residual activity [34]: 96.9%
residual activity [35]: 93.5%
residual activity [36]: 102%
residual activity [37]: 94.5%
residual activity [38]: 99.1%
residual activity [39]: 114%
residual activity [40]: 103%
residual activity [41]: 102%

Cc1ccc(NC2=CC(=O)c3sc(C)nc3C2=O)cc1
residual activity [1]: 101%
residual activity [2]: 87.6%
residual activity [3]: 104% and 96.3%
residual activity [4]: 101%
residual activity [5]: 99.6%
residual activity [6]: 106%
residual activity [7]: 84.5%
residual activity [8]: 100%
residual activity [9]: 98.5%
residual activity [10]: 90.4%
residual activity [11]: 95.3%
residual activity [12]: 106%
residual activity [13]: 86.3%
residual activity [14]: 77.6%
residual activity [15]: 85.3%
residual activity [16]: 96.6%
residual activity [17]: 99.1%
residual activity [18]: 100%
residual activity [19]: 99.4%
residual activity [20]: 101%
residual activity [21]: 119%
residual activity [22]: 89.2%
residual activity [23]: 94.2%
residual activity [24]: 95%
residual activity [25]: 91.7%
residual activity [26]: 93.2%
residual activity [27]: 97.4%
residual activity [28]: 105%
residual activity [29]: 100%
residual activity [30]: 76.5%
residual activity [31]: 90.1%
residual activity [32]: 93.4%
residual activity [33]: 89.4%
residual activity [34]: 93.7%
residual activity [35]: 96.1%
residual activity [36]: 93.7%
residual activity [37]: 79.6%
residual activity [38]: 85.1%
residual activity [39]: 95.3%
residual activity [40]: 109%
residual activity [41]: 108%

CC(=O)c1ccc(N2CCOCC2)cc1O
residual activity [1]: 104%
residual activity [2]: 102%
residual activity [3]: 100% and 84.1%
residual activity [4]: 94.8%
residual activity [5]: 97.4%
residual activity [6]: 108%
residual activity [7]: 96.9%
residual activity [8]: 103%
residual activity [9]: 93%
residual activity [10]: 90.2%
residual activity [11]: 101%
residual activity [12]: 96.5%
residual activity [13]: 97.1%
residual activity [14]: 132%
residual activity [15]: 95.6%
residual activity [16]: 109%
residual activity [17]: 98.6%
residual activity [18]: 96.8%
residual activity [19]: 93.9%
residual activity [20]: 94.3%
residual activity [21]: 99.4%
residual activity [22]: 92.3%
residual activity [23]: 100%
residual activity [24]: 101%
residual activity [25]: 110%
residual activity [26]: 100%
residual activity [27]: 104%
residual activity [28]: 98.9%
residual activity [29]: 110%
residual activity [30]: 105%
residual activity [31]: 91.1%
residual activity [32]: 90.9%
residual activity [33]: 95%
residual activity [34]: 95.9%
residual activity [35]: 95.2%
residual activity [36]: 96.4%
residual activity [37]: 104%
residual activity [38]: 94.7%
residual activity [39]: 103%
residual activity [40]: 105%
residual activity [41]: 111%

c1ccc(-c2n[nH]c3c2oc2ccccc23)cc1
residual activity [1]: 110%
residual activity [2]: 85.2%
residual activity [3]: 102% and 103%
residual activity [4]: 91.8%
residual activity [5]: 91.6%
residual activity [6]: 123%
residual activity [7]: 36.1%
residual activity [8]: 87.3%
residual activity [9]: 93.7%
residual activity [10]: 93.3%
residual activity [11]: 90.2%
residual activity [12]: 99%
residual activity [13]: 85.8%
residual activity [14]: 94.1%
residual activity [15]: 116%
residual activity [16]: 96.5%
residual activity [17]: 104%
residual activity [18]: 79.6%
residual activity [19]: 99%
residual activity [20]: 81.4%
residual activity [21]: 97.4%
residual activity [22]: 84.7%
residual activity [23]: 99.3%
residual activity [24]: 108%
residual activity [25]: 89.1%
residual activity [26]: 94.5%
residual activity [27]: 132%
residual activity [28]: 49.6%
residual activity [29]: 84%
residual activity [30]: 100%
residual activity [31]: 86.1%
residual activity [32]: 89.6%
residual activity [33]: 97.4%
residual activity [34]: 84.4%
residual activity [35]: 96.4%
residual activity [36]: 101%
residual activity [37]: 81.3%
residual activity [38]: 87.3%
residual activity [39]: 98.6%
residual activity [40]: 101%
residual activity [41]: 98%
